# Where two headings read alike, the source gives them in different places.
# Tests used:
# Assay type in all cases: cell-based
# [1] = target: kinases in BCWM.1 cells (Homo sapiens, UniProt O95747); test: KINATIV assay of compounds I-3 and I-9, lysate directly labeled with ATP-biotin probe (no GF); details: OSR1; Lys2; 1 μM, 90 min; no GF
# Procedure: (§1) The cells were harvested and lysed. […] Bound kinases were identified and quantitated by ACTIVX as described in Patricelli et al., Biochemistry, 2007, 46(2): 350-358. The compounds were tested in duplicates against duplicate or quadruplicate control samples.
# [2] = target: kinases in BCWM.1 cells (Homo sapiens, UniProt P19525); test: as above; details: PKR; Lys2; 1 μM, 90 min; no GF
# Chain of kinases in BCWM.1 cells (Homo sapiens, UniProt P19525) (P19525 2-551 limits assumed): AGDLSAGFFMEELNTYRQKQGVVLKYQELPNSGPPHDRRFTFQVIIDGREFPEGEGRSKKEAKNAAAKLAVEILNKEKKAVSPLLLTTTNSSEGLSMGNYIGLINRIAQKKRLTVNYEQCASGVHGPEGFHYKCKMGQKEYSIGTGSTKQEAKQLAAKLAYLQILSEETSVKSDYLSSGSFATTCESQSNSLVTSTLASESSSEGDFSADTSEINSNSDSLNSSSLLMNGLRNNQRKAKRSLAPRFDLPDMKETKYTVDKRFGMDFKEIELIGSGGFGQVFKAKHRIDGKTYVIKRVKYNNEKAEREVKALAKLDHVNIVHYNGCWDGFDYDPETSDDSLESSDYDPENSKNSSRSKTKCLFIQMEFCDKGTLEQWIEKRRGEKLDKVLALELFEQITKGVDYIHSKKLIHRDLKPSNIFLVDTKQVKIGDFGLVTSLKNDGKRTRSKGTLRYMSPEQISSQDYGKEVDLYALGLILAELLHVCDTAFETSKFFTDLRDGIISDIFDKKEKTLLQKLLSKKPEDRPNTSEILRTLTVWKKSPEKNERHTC
# Procedure: as §1
# [3] = target: T1, kinases in BCWM.1 cells (Homo sapiens, UniProt Q14289); test: as above; details: PYK2; Activation Loop; 1 μM, 90 min; no GF
# Procedure: as §1
# [4] = target: kinases in BCWM.1 cells (Homo sapiens, UniProt Q8TD19); test: as above; details: NEK9; Lys2; 1 μM, 90 min; no GF
# Chain of kinases in BCWM.1 cells (Homo sapiens, UniProt Q8TD19) (Q8TD19 2-979 limits assumed): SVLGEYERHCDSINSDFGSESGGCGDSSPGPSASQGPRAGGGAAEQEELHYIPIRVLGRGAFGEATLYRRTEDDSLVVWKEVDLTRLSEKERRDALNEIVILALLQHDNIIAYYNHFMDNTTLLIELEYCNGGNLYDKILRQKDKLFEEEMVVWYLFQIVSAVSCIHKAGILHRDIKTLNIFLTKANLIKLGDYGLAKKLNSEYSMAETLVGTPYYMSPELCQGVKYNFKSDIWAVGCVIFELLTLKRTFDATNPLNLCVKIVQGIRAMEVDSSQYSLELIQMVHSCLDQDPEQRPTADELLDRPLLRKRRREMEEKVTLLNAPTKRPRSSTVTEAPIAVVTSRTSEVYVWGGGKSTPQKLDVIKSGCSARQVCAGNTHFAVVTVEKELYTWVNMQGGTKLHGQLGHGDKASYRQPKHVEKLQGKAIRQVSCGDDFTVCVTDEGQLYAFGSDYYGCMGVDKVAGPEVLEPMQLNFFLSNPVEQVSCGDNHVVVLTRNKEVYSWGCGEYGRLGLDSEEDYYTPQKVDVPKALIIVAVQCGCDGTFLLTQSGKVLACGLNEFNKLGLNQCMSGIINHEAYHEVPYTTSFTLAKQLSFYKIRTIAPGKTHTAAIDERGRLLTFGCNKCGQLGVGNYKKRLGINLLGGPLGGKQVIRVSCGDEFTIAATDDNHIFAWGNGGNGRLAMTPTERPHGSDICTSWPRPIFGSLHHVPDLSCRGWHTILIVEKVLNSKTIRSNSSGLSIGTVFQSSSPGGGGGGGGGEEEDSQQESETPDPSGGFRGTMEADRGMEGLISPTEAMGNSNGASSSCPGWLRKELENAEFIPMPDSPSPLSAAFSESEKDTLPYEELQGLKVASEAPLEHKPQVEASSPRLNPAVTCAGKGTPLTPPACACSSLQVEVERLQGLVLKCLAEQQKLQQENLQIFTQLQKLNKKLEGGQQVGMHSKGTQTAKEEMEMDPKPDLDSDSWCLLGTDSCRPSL
# Procedure: as §1
# [5] = target: kinases in BCWM.1 cells (Homo sapiens, UniProt Q9NZJ5); test: as above; details: PEK; Lys2; 1 μM, 90 min; no GF
# Procedure: as §1
# [6] = target: T2, kinases in BCWM.1 cells (Homo sapiens, UniProt Q9UL54); test: as above; details: TAO2; Lys2; 1 μM, 90 min; no GF
# Procedure: as §1
# [7] = target: kinases in BCWM.1 cells (Homo sapiens, UniProt O00329); details: PIK3CD; ATP; 1 μM, 90 min; GF
# Procedure: as §1
# [8] = target: kinases in BCWM.1 cells (Homo sapiens, UniProt O95819); details: ZC1/HGK; Lys1; 1 μM, 90 min; GF
# Chain of kinases in BCWM.1 cells (Homo sapiens, UniProt O95819) (O95819 2-1239 limits assumed): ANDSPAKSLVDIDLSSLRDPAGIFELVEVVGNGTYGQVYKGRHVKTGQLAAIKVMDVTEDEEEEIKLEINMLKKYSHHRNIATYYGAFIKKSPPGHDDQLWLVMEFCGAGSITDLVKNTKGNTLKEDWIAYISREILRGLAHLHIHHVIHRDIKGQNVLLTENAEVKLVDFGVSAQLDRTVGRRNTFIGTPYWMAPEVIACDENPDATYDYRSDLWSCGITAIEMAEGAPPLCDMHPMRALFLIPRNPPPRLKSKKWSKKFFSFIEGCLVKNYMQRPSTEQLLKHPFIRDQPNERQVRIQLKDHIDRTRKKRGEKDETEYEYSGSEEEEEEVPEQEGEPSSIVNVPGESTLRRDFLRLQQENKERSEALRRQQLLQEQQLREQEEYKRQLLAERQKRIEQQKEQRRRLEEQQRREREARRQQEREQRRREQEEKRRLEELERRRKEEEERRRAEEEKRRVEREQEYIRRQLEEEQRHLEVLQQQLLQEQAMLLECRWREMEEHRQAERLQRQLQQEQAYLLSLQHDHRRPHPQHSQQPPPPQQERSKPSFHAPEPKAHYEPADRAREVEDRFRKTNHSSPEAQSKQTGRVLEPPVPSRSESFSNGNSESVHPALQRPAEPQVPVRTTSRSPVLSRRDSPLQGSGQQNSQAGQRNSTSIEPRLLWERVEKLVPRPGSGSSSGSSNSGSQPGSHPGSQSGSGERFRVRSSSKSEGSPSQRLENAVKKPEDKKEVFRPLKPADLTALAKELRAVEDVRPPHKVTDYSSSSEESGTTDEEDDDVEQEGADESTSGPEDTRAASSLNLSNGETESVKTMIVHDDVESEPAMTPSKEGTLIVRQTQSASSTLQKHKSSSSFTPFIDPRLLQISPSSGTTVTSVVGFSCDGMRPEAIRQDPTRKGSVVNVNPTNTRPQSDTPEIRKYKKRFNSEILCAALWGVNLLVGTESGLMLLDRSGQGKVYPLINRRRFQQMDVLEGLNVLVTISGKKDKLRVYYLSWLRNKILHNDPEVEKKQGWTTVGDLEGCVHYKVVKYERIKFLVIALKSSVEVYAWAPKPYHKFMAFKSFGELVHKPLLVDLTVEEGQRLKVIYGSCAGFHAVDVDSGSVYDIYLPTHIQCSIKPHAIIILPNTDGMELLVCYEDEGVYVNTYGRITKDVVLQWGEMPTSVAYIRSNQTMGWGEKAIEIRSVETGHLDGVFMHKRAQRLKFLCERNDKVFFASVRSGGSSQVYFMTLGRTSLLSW
# Procedure: as §1
# [9] = target: kinases in BCWM.1 cells (Homo sapiens, UniProt P15735); details: PHKg2; Lys1; 1 μM, 90 min; GF
# Procedure: as §1
# [10] = target: kinases in BCWM.1 cells (Homo sapiens, UniProt P21127); details: PITSLRE; Lys2; 1 μM, 90 min; GF
# Procedure: as §1
# [11] = target: kinases in BCWM.1 cells (Homo sapiens, UniProt P23443); details: p70S6K; Lys2; 1 μM, 90 min; GF
# Procedure: as §1
# [12] = target: kinases in BCWM.1 cells (Homo sapiens, UniProt P30291); details: Wee1; Lys2; 1 μM, 90 min; GF
# Procedure: as §1
# [13] = target: kinases in BCWM.1 cells (Homo sapiens, UniProt P42338); details: PIK3CB; ATP; 1 μM, 90 min; GF
# Procedure: as §1
# [14] = target: kinases in BCWM.1 cells (Homo sapiens, UniProt P48426); details: PIP4K2A; ATP; 1 μM, 90 min; GF
# Chain of kinases in BCWM.1 cells (Homo sapiens, UniProt P48426) (P48426 2-406 limits assumed): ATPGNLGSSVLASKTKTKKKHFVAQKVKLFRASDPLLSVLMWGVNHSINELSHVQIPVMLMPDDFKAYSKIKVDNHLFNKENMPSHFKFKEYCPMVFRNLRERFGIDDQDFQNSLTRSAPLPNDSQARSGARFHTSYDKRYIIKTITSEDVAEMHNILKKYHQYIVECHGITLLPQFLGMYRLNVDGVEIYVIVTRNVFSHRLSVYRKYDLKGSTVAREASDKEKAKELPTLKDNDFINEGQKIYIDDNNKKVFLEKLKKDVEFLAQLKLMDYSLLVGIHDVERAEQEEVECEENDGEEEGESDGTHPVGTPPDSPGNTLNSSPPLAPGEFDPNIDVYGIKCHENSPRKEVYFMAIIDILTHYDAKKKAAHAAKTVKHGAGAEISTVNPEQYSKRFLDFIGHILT
# Procedure: as §1
# [15] = target: kinases in BCWM.1 cells (Homo sapiens, UniProt P48736); details: PIK3CG; ATP; 1 μM, 90 min; GF
# Procedure: as §1
# [16] = target: T1, kinases in BCWM.1 cells; details: PYK2; Activation Loop; 1 μM, 90 min; GF
# Procedure: as §1
# [17] = target: kinases in BCWM.1 cells (Homo sapiens, UniProt Q15418); details: Lys2, 1 μM, 90 min, GF
# Procedure: as §1
# [18] = target: kinases in BCWM.1 cells (Homo sapiens, UniProt Q16512); details: PKN1; Lys1; 1 μM, 90 min; GF
# Chain of kinases in BCWM.1 cells (Homo sapiens, UniProt Q16512) (Q16512 2-942 limits assumed): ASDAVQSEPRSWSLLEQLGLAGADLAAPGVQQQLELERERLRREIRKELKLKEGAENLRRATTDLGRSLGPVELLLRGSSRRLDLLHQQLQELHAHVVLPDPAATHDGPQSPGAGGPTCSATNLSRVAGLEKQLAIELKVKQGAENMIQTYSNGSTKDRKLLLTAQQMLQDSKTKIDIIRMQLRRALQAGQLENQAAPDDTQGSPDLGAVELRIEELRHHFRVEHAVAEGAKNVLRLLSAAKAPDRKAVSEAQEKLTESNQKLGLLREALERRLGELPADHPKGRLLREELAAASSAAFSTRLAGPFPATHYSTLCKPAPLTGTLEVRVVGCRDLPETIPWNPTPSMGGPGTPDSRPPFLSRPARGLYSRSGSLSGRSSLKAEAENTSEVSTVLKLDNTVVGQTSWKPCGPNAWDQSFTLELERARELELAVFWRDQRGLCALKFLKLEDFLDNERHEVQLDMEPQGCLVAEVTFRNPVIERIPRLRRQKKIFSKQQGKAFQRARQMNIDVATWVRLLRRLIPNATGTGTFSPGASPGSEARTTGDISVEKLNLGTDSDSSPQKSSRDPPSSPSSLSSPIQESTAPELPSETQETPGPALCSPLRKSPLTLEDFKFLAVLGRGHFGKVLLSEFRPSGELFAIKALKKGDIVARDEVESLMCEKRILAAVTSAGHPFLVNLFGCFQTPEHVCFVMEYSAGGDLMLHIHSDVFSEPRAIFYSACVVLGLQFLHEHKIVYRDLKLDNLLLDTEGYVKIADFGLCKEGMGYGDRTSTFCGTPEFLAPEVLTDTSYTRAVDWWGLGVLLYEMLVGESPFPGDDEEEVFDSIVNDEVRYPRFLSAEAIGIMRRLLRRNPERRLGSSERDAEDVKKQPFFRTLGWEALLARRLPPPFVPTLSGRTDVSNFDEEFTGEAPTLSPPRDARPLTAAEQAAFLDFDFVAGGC
# Procedure: as §1
# [19] = target: kinases in BCWM.1 cells (Homo sapiens, UniProt Q96PY6); details: NEK1; Lys2; 1 μM, 90 min; GF
# Procedure: as §1
# [20] = target: kinases in BCWM.1 cells (Homo sapiens, UniProt Q9BZL6); details: PKD2; Lys1; 1 μM, 90 min; GF
# Procedure: as §1
# [21] = target: kinases in BCWM.1 cells (Homo sapiens, UniProt Q9UBE8); details: NLK; Lys2; 1 μM, 90 min; GF
# Procedure: as §1
# [22] = target: kinases in BCWM.1 cells (Homo sapiens, UniProt Q9UBF8); details: PI4KB; ATP; 1 μM, 90 min; GF
# Chain of kinases in BCWM.1 cells (Homo sapiens, UniProt Q9UBF8) (Q9UBF8 2-816 limits assumed): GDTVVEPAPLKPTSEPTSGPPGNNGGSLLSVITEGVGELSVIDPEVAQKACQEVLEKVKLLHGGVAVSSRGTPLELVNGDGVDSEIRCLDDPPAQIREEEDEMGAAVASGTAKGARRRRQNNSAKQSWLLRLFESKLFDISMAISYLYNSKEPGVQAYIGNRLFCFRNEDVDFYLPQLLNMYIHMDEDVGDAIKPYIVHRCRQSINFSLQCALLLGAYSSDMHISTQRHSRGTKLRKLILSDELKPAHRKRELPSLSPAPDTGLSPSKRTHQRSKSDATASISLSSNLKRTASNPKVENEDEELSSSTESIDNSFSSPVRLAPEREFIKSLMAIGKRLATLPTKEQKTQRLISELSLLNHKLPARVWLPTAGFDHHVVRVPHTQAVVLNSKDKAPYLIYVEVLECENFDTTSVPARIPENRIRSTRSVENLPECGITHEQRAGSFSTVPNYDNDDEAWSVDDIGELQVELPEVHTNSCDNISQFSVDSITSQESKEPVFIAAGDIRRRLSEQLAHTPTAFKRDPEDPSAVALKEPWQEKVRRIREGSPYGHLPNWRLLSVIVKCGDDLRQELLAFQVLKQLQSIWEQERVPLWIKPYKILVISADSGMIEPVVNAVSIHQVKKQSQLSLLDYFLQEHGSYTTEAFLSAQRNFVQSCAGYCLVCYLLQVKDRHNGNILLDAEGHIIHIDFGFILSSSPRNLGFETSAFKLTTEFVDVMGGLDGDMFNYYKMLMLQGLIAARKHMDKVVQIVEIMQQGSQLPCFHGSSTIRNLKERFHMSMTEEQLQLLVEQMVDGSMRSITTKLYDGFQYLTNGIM
# Procedure: as §1
# [23] = target: T2, kinases in BCWM.1 cells; details: TAO2; Lys2; 1 μM, 90 min; GF
# Procedure: as §1
# [24] = target: kinases in BCWM.1 cells (Homo sapiens, UniProt Q9Y2H1); details: NDR2; Lys2; 1 μM, 90 min; GF
# Procedure: as §1
# [25] = target: kinases in BCWM.1 cells (Homo sapiens, UniProt Q9Y572); details: RIPK3; Lys2; 1 μM, 90 min; GF
# Procedure: as §1
# [26] = system: kinases in BCWM.1 cells; details: 1 μM, 90 min, GF
# Procedure: as §1
smiles,measurement,setting,value
C=CC(=O)N1CC[C@H](Nc2nccc(Nc3ncc(C(=O)Nc4c(C)cccc4C)s3)n2)C1 [Example I-3],% change of MS signal compared to control sample,[1],13.8%
same,% change of MS signal compared to control sample,[2],−3.6%
same,% change of MS signal compared to control sample,[3],1%
same,% change of MS signal compared to control sample,[4],15.4%
same,% change of MS signal compared to control sample,[5],−12.8%
same,% change of MS signal compared to control sample,[6],5%
same,% change of MS signal compared to control sample,[7],−17.2%
same,% change of MS signal compared to control sample,[8],−16.8%
same,% change of MS signal compared to control sample,[9],22.3%
same,% change of MS signal compared to control sample,[10],−8.6%
same,% change of MS signal compared to control sample,[11],−51.5%
same,% change of MS signal compared to control sample,[12],−6.5%
same,% change of MS signal compared to control sample,[13],39.9%
same,% change of MS signal compared to control sample,[14],−15.2%
same,% change of MS signal compared to control sample,[15],−3.4%
same,% change of MS signal compared to control sample,[16],−12.1%
same,% change of MS signal compared to control sample,[17]; RSK1 domain1,−16.9%
same,% change of MS signal compared to control sample,[17]; RSK1 domain2,−20.8%
same,% change of MS signal compared to control sample,[18],−29.4%
same,% change of MS signal compared to control sample,[19],−7.6%
same,% change of MS signal compared to control sample,[20],−1.4%
same,% change of MS signal compared to control sample,[21],85.9%
same,% change of MS signal compared to control sample,[22],−4.1%
same,% change of MS signal compared to control sample,[23],8%
same,% change of MS signal compared to control sample,[24],−9.6%
same,% change of MS signal compared to control sample,[25],22%
same,% change of MS signal compared to control sample,"[26]; MST4, YSK1, Lys2",15.5%
same,% change of MS signal compared to control sample,"[26]; NEK6, NEK7, Lys2",−13.1%
same,% change of MS signal compared to control sample,"[26]; PCTAIRE2, PCTAIRE3, Lys1",−12%
same,% change of MS signal compared to control sample,"[26]; PI4KA, PI4KAP2, ATP",12%
same,% change of MS signal compared to control sample,"[26]; PKACa, PKCb, Lys2",3.3%
same,% change of MS signal compared to control sample,"[26]; ROCK1, ROCK2, Lys2",12.5%
same,% change of MS signal compared to control sample,"[26]; RSK1 domain1, RSK2 domain1, RSK3 domain1, Lys2",−7.3%
same,% change of MS signal compared to control sample,"[26]; SRPK1, SRPK2, Lys1",22.3%
same,% change of MS signal compared to control sample,"[26]; TAO1, TAO3, Lys2",14.3%
same,% change of MS signal compared to control sample,"[26]; Wnk1, Wnk2, Wnk3, Lys2",−1.2%
same,% change of MS signal compared to control sample,"[26]; Wnk1, Wnk2, ATP Loop",6.8%
same,% change of MS signal compared to control sample,"[26]; ZC1/HGK, ZC2/TNIK, ZC3/MINK, Lys2",−0.1%
same,% change of MS signal compared to control sample,"[26]; p38d, p38g, Lys2",−0.7%

# Reference: patent US10844077B2, “Thiazolyl-containing compounds for treating proliferative diseases” (Dana-Farber Cancer Institute, Inc., priority 2014, dated 2020)
